Columns and labels:
[1] = tested on: A-549; assay: Inhibition of cells growth by colorimetric assay (SRB), A-549; format: cell-based
Procedure, shortened: (§1)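 Compound in DMSO/EtOH/PBS vehicle was applied at 10 to 10^−8 μg/ml to attached cells (5×10^3/well, 18 h) for 48 h. Cells were then fixed with cold TCA and stained with 0.4% SRB in 1% acetic acid.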

[2] = tested on: SK-MEL-28; assay: Inhibition of cells growth by colorimetric assay (SRB), SK-MEL-28; format: cell-based
Procedure, shortened: as §1

[3] = tested on: HT-29; assay: Inhibition of cells growth by colorimetric assay (SRB), HT-29; format: cell-based
Procedure, shortened: as §1

[4] = tested on: SW620; assay: Inhibition of cells growth by colorimetric assay (SRB), SW620; format: cell-based
Method: (§2) 2°.—Inhibition of Cells Growth by Colorimetric Assay.
(§3) A colorimetric type of assay, using sulforhodamine B (SRB) reaction has been adapted for a quantitative measurement of cell growth and viability [following the technique described by Philip Skehan, et al. (1990), New colorimetric cytotoxicity assay for anticancer drug screening, J. Natl. Cancer Inst., 82:1107-1112]
(§4) This form of the assay employs 96 well cell culture microplates of 9 mm diameter (Faircloth, 1988; Mosmann, 1983). Most of the cell lines are obtained from American Type Culture Collection (ATCC) derived from different human cancer types.
(§5) Cells are maintained in RPMI 1640 10% FBS, supplemented with 0.1 g/l penicillin and 0.1 g/l streptomycin sulfate and then incubated at 37° C., 5% CO2 and 98% humidity. For the experiments, cells were harvested from subconfluent cultures using trypsin and resuspended in fresh medium before plating.
(§6) Cells are seeded in 96 well microtiter plates, at 5×10^3 cells per well in aliquots of 195 μl medium, and they are allowed to attach to the plate surface by growing in drug free medium for 18 hours. Afterward, samples are added in aliquots of 5 μl in a ranging from 10 to 10^−8 μg/ml, dissolved in DMSO/EtOH/PBS (0.5:0.5:99). After 48 hours exposure, the antitumor effect are measured by the SRB methodology: cells are fixed by adding 50 μl of cold 50% (wt/vol) trichloroacetic acid (TCA) and incubating for 60 minutes at 4° C. Plates are washed with deionized water and dried. One hundred μl of SRB solution (0.4% wt/vol in 1% acetic acid) is added to each microtiter well and incubated for 10 minutes at room temperature. Unbound SRB is removed by washing with 1% acetic acid. Plates are air dried and bound stain is solubilized with Tris buffer. Optical densities are read on a automated spectrophotometric plate reader at a single wavelength of 490 nm.
(§7) The values for mean+/−SD of data from triplicate wells are calculated. Some parameters for cellular responses can be calculated: GI=growth inhibition, TGI=total growth inhibition (cytostatic effect) and LC=cell killing (cytotoxic effect).
(§8) Obtained results may predict the usefulness of a certain drug as a potential cancer treatment. For this technique, compounds which show GI50 values smaller than 10 μg/ml are selected to continue with further studies. GI50's data allow to predict that not only could a drug be cystostatic, but also it could have a potential in terms of tumor reduction.

[5] = tested on: DU-145; assay: Inhibition of cells growth by colorimetric assay (SRB), DU-145; format: cell-based
Procedure, shortened: as §1

[6] = tested on: MCF-7; assay: Inhibition of cells growth by colorimetric assay (SRB), MCF-7; format: cell-based
Method: as §2, §3, §4, §5, §6, §7, §8

[7] = tested on: MDA-MB-231; assay: Inhibition of cells growth by colorimetric assay (SRB), MDA-MB-231; format: cell-based
Method: as §2, §3, §4, §5, §6, §7, §8

[8] = tested on: OVCAR-3; assay: Inhibition of cells growth by colorimetric assay (SRB), OVCAR-3; format: cell-based
Method: as §2, §3, §4, §5, §6
The values for mean+/−SD of data from triplicate wells are calculated. Some parameters for cellular responses can be calculated: GI=growth inhibition, TGI=total growth inhibition (cytostatic effect) and LC=cell killing (cytotoxic effect). […]

[9] = tested on: A-498; assay: Inhibition of cells growth by colorimetric assay (SRB), A-498; format: cell-based
Method: as §2, §3, §4, §5, §6, §7, §8

[10] = tested on: Liver
Source text: (§9) Toxicity was asssessed by the methods reported in Toxicology in Vitro, 15 (2001) 571-577, J. Luber Narod et al.: “Evaluation of the use of in vitro methodolodies as tools for screening new compounds for potential in vivo toxicity”.

[11] = tested on: Heart
Source text: as §9

[12] = tested on: Myelo
Source text: as §9

[13] = tested on: Skeletal
Source text: as §9

[14] = tested on: Kidney
Source text: as §9

COc1cc2c(cc1OC(=O)/C=C/c1ccccc1)CCN[C@]21CS[C@@H]2c3c(OC(C)=O)c(C)c4c(c3[C@H](COC1=O)N1C2[C@@H]2N[C@@H](Cc3cc(C)c(OC)c(O)c32)[C@@H]1O)OCO4 (some centres unmarked) [Compound 212]
GI50 ([1]; Homo sapiens, A549, 48 h, read-out: A-549 GI50): 9.11 nM | LC50 (concentration for 50% cell killing) ([1]; Homo sapiens, A549, 48 h, read-out: A-549 LC50, SRB assay, 48 hours exposure): 114 nM | A-549 TGI ([1]; SRB assay, 48 hours exposure): 2.28E-08 | GI50 ([2]; Homo sapiens, SK-MEL-28, 48 h, SRB assay, 48 hours exposure, read-out: MEL-28 GI50): 1.14 nM | CC50 ([2]; Homo sapiens, SK-MEL-28, 48 h, read-out: MEL-28 LC50, SRB assay, 48 hours exposure): 9.11 nM | MEL-28 TGI ([2]; SRB assay, 48 hours exposure): 3.42E-09 | GI50 ([3]; Homo sapiens, HT-29, 48 h, SRB assay, 48 hours exposure, read-out: HT-29 GI50): 2.28 nM | LC50 (concentration for 50% cell killing) ([3]; Homo sapiens, HT-29, 48 h, read-out: HT-29 LC50, SRB assay, 48 hours exposure): 11.4 nM | HT-29 TGI ([3]; SRB assay, 48 hours exposure): 4.56E-09 | LC50 ([4]; Homo sapiens, SW-620, 48 h, read-out: SW-620 LC50): 2280 nM | GI50 ([4]; Homo sapiens, SW-620, SRB assay, 48 hours exposure, read-out: SW-620 GI50): 0.0228 nM | SW-620 TGI ([4]; SRB assay, 48 hours exposure): 1.14E-08 | GI50 ([5]; Homo sapiens, DU-145, 48 h, SRB assay, 48 hours exposure, read-out: DU-145 GI50): 0.114 nM | CC50 ([5]; Homo sapiens, DU-145, 48 h, read-out: DU-145 LC50, SRB assay, 48 hours exposure): 11.4 nM | DU-145 TGI ([5]; SRB assay, 48 hours exposure): 6.83E-10 | CC50 ([6]; Homo sapiens, MCF7, 48 h, read-out: MCF LC50): 342 nM | GI50 ([6]; Homo sapiens, MCF7, SRB assay, 48 hours exposure, read-out: MCF GI50): 0.342 nM | MCF TGI ([6]; SRB assay, 48 hours exposure): 1.14E-08 | CC50 ([7]; Homo sapiens, MDA-MB-231, 48 h, read-out: MB-231 LC50): 114 nM | GI50 ([7]; Homo sapiens, MDA-MB-231, SRB assay, 48 hours exposure, read-out: MB-231 GI50): 0.228 nM | MB-231 TGI ([7]; SRB assay, 48 hours exposure): 5.69E-09 | CC50 ([8]; Homo sapiens, OVCAR-3, 48 h, read-out: OVCAR LC50): 2280 nM | GI50 ([8]; Homo sapiens, OVCAR-3, SRB assay, 48 hours exposure): 0.342 nM | OVCAR TGI ([8]; SRB assay, 48 hours exposure): 3.42E-09 | LC50 ([9]; Homo sapiens, A498, 48 h, read-out: A-498 LC50): 1140 nM | GI50 ([9]; Homo sapiens, A498, SRB assay, 48 hours exposure, read-out: A-498 GI50): 2.28 nM | A-498 TGI ([9]; SRB assay, 48 hours exposure): 1.14E-08 | Toxicity Data Liver [10]: 8.68E-08 | Toxicity Data Heart [11]: 3.20E-08 | Toxicity Data Myelo [12]: 8.58E-09 | Toxicity Data Skeletal [13]: 2.21E-08 | Toxicity Data Kidney [14]: 3.34E-09
